According to US9029553B2, “2-anilino nicotinyl linked 2-amino benzothiazole conjugates and process for the preparation thereof” (Council of Scientific & Industrial Research, priority 2011, dated 2015):

Tests used:
[1] = system: normal monkey kidney CV-1 cells; assay: MTT cytotoxicity in normal cells; assay type: cell-based; conditions: Primates
Method: These compounds were also evaluated for their cytotoxic potential in normal cells and for these purpose their IC50 value were also determine in normal monkey kidney CV-1 cells by using MTT method. The ratios of normal to cancer cells IC50 value were ranges from 10-1000 times (Table 5).

survivin = assay: Western blot of cell death targets; assay type: cell-based, human; conditions: 1 μM, 24 h, HL-60
Method: Apoptosis was further characterized by the western blot analysis. Cells were treated with tested compounds at 1 μM for 24 h and expression of key apoptotic proteins like NF-kB, survivin; PARP, Bcl-2 and HSP-90 were analyzed through western blot. Both NF-kB and survivin are highly expressed in HL-60 cells. NF-kB is a transcriptional factor regulating the expression of several genes in the cells whereas survivin is a cell cycle regulated inhibitor of apoptosis protein (IAP), mostly over expressed in most of the tumors.

HL-60 cells [2] = assay: Cell cycle analysis (FACS) by flow cytometry; assay type: cell-based, human; conditions: 1 μM, up to 24 h
From the text: The damage was more apparent with compound 8 and 6 (90% and 60% DNA damaged, respectively).

Hela [3] = assay: MTT inhibition of cell proliferation; assay type: cell-based; conditions: Homo sapiens, 48 h
From the text: (§1) In order to determine the mode of action of cell death in cancer cells, first we explored the cytotoxic potential of different structural analogs of benzothiazoles on different human cancer cell lines. […] These compounds have limited or no cytotoxicity to cervical cancer SiHa, HeLa cells, breast cancer MCF-7 cells and colon cancer HCT-15 cells.

SiHa [4] = assay: MTT inhibition of cell proliferation; assay type: cell-based; conditions: Homo sapiens, 48 h
From the text: as §1

HL-60 = assay: MTT inhibition of cell proliferation; assay type: cell-based; conditions: Homo sapiens, 48 h
From the text: as §1

HCT-15 [5] = assay: MTT inhibition of cell proliferation; assay type: cell-based; conditions: Homo sapiens, 48 h
From the text: as §1

MCF-7 [6] = assay: MTT inhibition of cell proliferation; assay type: cell-based; conditions: Homo sapiens, MCF7, 48 h
From the text: as §1

HL-60 cells [7] = assay: Flow cytometric analysis of reactive oxygen species (DCFH-DA); assay type: cell-based, human; conditions: 1 μM, 24 h, HL-60, compared to control
Method: It was clear that these compounds were cytotoxic and induce apoptosis in HL-60 cells, now we have to found out the early events which were responsible for the induction of apoptosis like reactive oxygen species (ROS) or nitric oxide (NO) generation. Intracellular peroxide (ROS) in the cells was measured by DCFH-DA by using flow cytometry. Cells were incubated with tested compounds at 1 μM for 24 h in HL-60 cells and analyzed by flow cytometry after double staining with DCFH-DA (FIG. 7). Cells were analyzed for fluorescence intensity in FL1 vs. cell count. There was hardly any DCF fluorescence (ROS positive cells) in the untreated HL-60 cells, and this status remained unchanged when cells were incubated for 24 hr with compounds 7 and 8. […] Compounds 4 and 6 also induce the generation of peroxide in HL-60 cells (31 and 16% increase, respectively).

Hela [8] = assay: SRB percentage growth inhibition (NCI protocol); assay type: cell-based; conditions: Homo sapiens, 48 hrs exposure
Method: (§2) 2-Anilino nicotinyl linked 2-amino benzothiazoles conjugates of formula 4-8 have been tested against ten and eleven human cancer cell lines for 10 and 1 μM respectively derived from nine cancer types (leukemia, non-small cell lung cancer, colon cancer, CNS cancer, melanoma, ovarian cancer, renal cancer, prostate cancer and breast cancer) as per NCI protocol. For each compound, percentage of growth inhibition was calculated for individual cell lines at a minimum of two concentrations (1 and 10 μM). A protocol of 48 hrs continuous drug exposure was used, and a sulforhodamine B (SRB) protein assay was used to estimate cell viability or growth. The percentage of growth inhibition compared with the control was calculated in table 1 and table 2.

IMR-32 = assay: SRB percentage growth inhibition (NCI protocol); assay type: cell-based; conditions: Homo sapiens, 48 hrs exposure
Method: as §2

PC-3 = assay: SRB percentage growth inhibition (NCI protocol); assay type: cell-based; conditions: Homo sapiens, 48 hrs exposure
Method: as §2

HEP-2 = assay: SRB percentage growth inhibition (NCI protocol); assay type: cell-based; conditions: Homo sapiens, 48 hrs exposure
Method: as §2

SiHa [9] = assay: SRB percentage growth inhibition (NCI protocol); assay type: cell-based; conditions: Homo sapiens, 48 hrs exposure
Method: as §2

HCT-15 [10] = assay: SRB percentage growth inhibition (NCI protocol); assay type: cell-based; conditions: Homo sapiens, 48 hrs exposure
Method: as §2

502713 = assay: SRB percentage growth inhibition (NCI protocol); assay type: cell-based; conditions: Homo sapiens, 48 hrs exposure
Method: as §2

DU145 = assay: SRB percentage growth inhibition (NCI protocol); assay type: cell-based; conditions: Homo sapiens, DU-145, 48 hrs exposure
Method: as §2

SK-NS-H = assay: SRB percentage growth inhibition (NCI protocol); assay type: cell-based; conditions: Homo sapiens, SK-N-SH, 48 hrs exposure
Method: as §2

A549 = assay: SRB percentage growth inhibition (NCI protocol); assay type: cell-based; conditions: Homo sapiens, 48 hrs exposure
Method: as §2

IGR-OV-1 = assay: SRB percentage growth inhibition (NCI protocol); assay type: cell-based; conditions: Homo sapiens, IGROV-1, 48 hrs exposure
Method: as §2

MCF-7 [11] = assay: SRB percentage growth inhibition (NCI protocol); assay type: cell-based; conditions: Homo sapiens, MCF7, 48 hrs exposure
Method: as §2

Sw-620 = assay: SRB percentage growth inhibition (NCI protocol); assay type: cell-based; conditions: Homo sapiens, 48 hrs exposure
Method: as §2

OVCAR-5 = assay: SRB percentage growth inhibition (NCI protocol); assay type: cell-based; conditions: Homo sapiens, 48 hrs exposure
Method: as §2

[12] = system: Ehrlich Ascites Carcinoma (EAC); assay: In vivo anticancer activity, Ehrlich ascites carcinoma; parameters: species or system Swiss mice; conditions: for No. of deaths / toxicity to animals: EAC mice
Method: Model: Ehrlich Ascites Carcinoma (EAC)
Ehrlich ascites carcinoma (EAC) cells were collected from the peritoneal cavity of the swiss mice harbouring 8-10 days old ascitic tumor. 1×10^7 EAC cells were injected intraperitoneally in Swiss mice selected for the experiment on day 0. The next day, animals were randomized and divided into different groups. The treatment groups contained 7 animals each and control group contained 10 animals. Treatment groups were treated with different doses of test substances intraperitoneally from day 1-9. One of the treatment group received 5-fluorouracil (20 mg/kg, i.p) and it served as positive control. The tumor bearing control group was similarly administered normal saline (0.2 ml, i.p.). On day 12, animals were sacrificed and ascitic fluid was collected from peritoneal cavity of each mouse for the evaluation of tumor growth. Percent tumor growth inhibition was calculated based on the total number of tumor cells present in the peritoneal cavity as on day 12 of the experiment using the following formula.

O=C(Nc1nc2ccc([N+](=O)[O-])cc2s1)c1cccnc1Nc1ccc(F)cc1 [Compound 6, N3-(6-nitro-1,3-benzothiazol-2-yl)-2-(4-fluoroanilino)nicotinamide]
IC50 [1]: 15 µM | survivin level (western blot) (survivin): highest inhibition potential | DNA damaged (sub-G0 fraction) (HL-60 cells [2]): 60% | IC50 (Hela [3]): 8 µM | IC50 (SiHa [4]): 7 µM | IC50 (HL-60): 0.3 µM | IC50 (HCT-15 [5]): > 100 µM | IC50 (MCF-7 [6]): > 100 µM | increase in DCF positive cell population (ROS) (HL-60 cells [7]): 16% | inhibition at 1 µM (Hela [8]): 40% | inhibition at 1 µM (IMR-32; 1 μM): 31% | inhibition at 10 µM (IMR-32; 10 μM): 33% | inhibition at 1 µM (PC-3): 26% | inhibition at 1 µM (HEP-2; 1 μM): 53% | inhibition at 10 µM (HEP-2; 10 μM): 52% | inhibition at 10 µM (SiHa [9]): 23% | inhibition at 1 µM (HCT-15 [10]; 1 μM): 22% | inhibition at 10 µM (HCT-15 [10]; 10 μM): 55% | inhibition at 10 µM 502713: 66% | inhibition at 1 µM (DU145; 1 μM): 31% | inhibition at 10 µM (DU145; 10 μM): 51% | inhibition at 10 µM (SK-NS-H): 63% | inhibition at 1 µM (A549; 1 μM): 27% | inhibition at 10 µM (A549; 10 μM): 18% | inhibition at 1 µM (IGR-OV-1): 25% | inhibition at 1 µM (MCF-7 [11]): 39% | inhibition at 1 µM (Sw-620; 1 μM): 9% | inhibition at 10 µM (Sw-620; 10 μM): 67% | inhibition at 1 µM (OVCAR-5; 1 μM): 27% | inhibition at 10 µM (OVCAR-5; 10 μM): 53% | Growth Inhibition (%) ([12]; 20 mg/Kg i.p. day 1-9, read day 12): 22.18% | No. of deaths / toxicity to animals ([12]; 20 mg/Kg i.p.): 0/7 | Growth Inhibition (%) ([12]; 30 mg/Kg i.p. day 1-9, read day 12): 43.11% | No. of deaths / toxicity to animals ([12]; 30 mg/Kg i.p.): 0/7 | Growth Inhibition (%) ([12]; 40 mg/Kg i.p. day 1-9, read day 12): 68.11% | No. of deaths / toxicity to animals ([12]; 40 mg/Kg i.p.): 4/7 and considerable toxicity | No. of deaths / toxicity to animals ([12]; 40 mg/Kg i.p., listed as Comp 6): 4/7
